# Where “and” joins values, the source holds several entries; their conditions need not be identical. Equal entries are not always repeated.
# Tested on: myxovirus-resistant protein 1 (Mx1)
# Assay: RT-qPCR of Mx1 mRNA in MDCK cells with or without A/PR/8/34 virus
# Format: cell-based, canine
# Details: for MDCK Mx1 mRNA, ave / MDCK Mx1 mRNA, individual replicates: 12.5uM, relative to virus - DMSO; for MDCK Mx1 mRNA, ave: ave of #1-3 exp; for MDCK Mx1 mRNA, individual replicates: replicates 1-3 of #1, #2, #3 exp
SMILES,mRNA level of Mx1 compared with 4 or 5-treatment,"MDCK Mx1 mRNA, ave (virus +)","MDCK Mx1 mRNA, ave (virus -)",also measured
C=C[C@]1(C)CCC(C(=C)C)C(c2ccc(O)cc2)C1 (stereo in doubt) [cyclobakuchiol A],significantly reduced,1.207,0.4356,"MDCK Mx1 mRNA, individual replicates (virus +, listed as Cyclobakuchiol A): 0.2527 and 2.463 and 2.156 and 2.352 and 0.9916 and 0.8981 and 0.9472 and 0.4146 and 0.3917; MDCK Mx1 mRNA, individual replicates (virus -, listed as Cyclobakuchiol A): 0.3455 and 0.4424 and 0.367 and 0.3469 and 0.4512 and 0.4646 and 0.7257 and 0.3943 and 0.3827"
C=C[C@]1(C)CCC(C(=C)C)C(c2ccc(O)cc2)C1 (stereo in doubt) [cyclobakuchiol B],,2.462,0.5972,"MDCK Mx1 mRNA, individual replicates (virus +, listed as Cyclobakuchiol B): 0.2997 and 4.213 and 3.979 and 5.553 and 2.777 and 2.185 and 2.395 and 0.2998 and 0.4603; MDCK Mx1 mRNA, individual replicates (virus -, listed as Cyclobakuchiol B): 0.4518 and 0.5333 and 0.4418 and 0.5841 and 1.295 and 0.3791 and 0.8214 and 0.4024 and 0.4657"
C=C[C@]1(C)CCC(C(C)(C)O)C(c2ccc(O)cc2)C1 (stereo in doubt) [cyclobakuchiol C],,4.111,1.049,"MDCK Mx1 mRNA, individual replicates (virus +, listed as Cyclobakuchiol C): 0.595 and 6.605 and 6.273 and 8.3748 and 5.332 and 3.973 and 4.3945 and 0.841 and 0.6149; MDCK Mx1 mRNA, individual replicates (virus -, listed as Cyclobakuchiol C): 0.8391 and 0.8734 and 1.094 and 0.9606 and 1.231 and 1.129 and 1.257 and 1.188 and 0.8673"
C=C[C@]1(C)CCC(C(C)(C)O)C(c2ccc(O)cc2)C1 (stereo in doubt) [cyclobakuchiol D],,4.805,1.431,"MDCK Mx1 mRNA, individual replicates (virus +, listed as Cyclobakuchiol D): 0.823 and 8.732 and 6.853 and 11.4737 and 5.421 and 3.904 and 4.71 and 0.7737 and 0.5563; MDCK Mx1 mRNA, individual replicates (virus -, listed as Cyclobakuchiol D): 1.033 and 1.181 and 1.602 and 1.158 and 2.885 and 1.4873 and 1.3014 and 1.1198 and 1.11"
"C=C[C@@](C)(/C=C/c1ccc(O)cc1)CCC=C(C)C [(+)-(S)-bakuchiol, reference compound]",significantly reduced,1.1334,0.4419,"virus-induced upregulation of Mx1 mRNA: significantly reduced; MDCK Mx1 mRNA, individual replicates (virus +): 0.2413 and 1.8944 and 2.953 and 2.445 and 0.9019 and 0.5846 and 0.6126 and 0.2532 and 0.315; MDCK Mx1 mRNA, individual replicates (virus -): 0.2755 and 0.4409 and 0.4188 and 0.4047 and 0.5819 and 0.4639 and 0.4949 and 0.4956 and 0.401"

# Source: publication PMC7997032, “Organic synthesis and anti-influenza A virus activity of cyclobakuchiols A, B, C, and D” (PLoS ONE, 2021)
